From patent US6204276A, “Dicarboxylic germanium complex and its therapeutic use” (Primamedic Ltd., priority 1996, dated 2001)

Columns and labels:
interferon [1] = settings: statement in words; cited from earlier work
acute toxicity in mice = format: in vivo
Description: The novel complex has low toxicity. In investigations of acute toxicity in mice, the LD50 is 900 mg per kilo body weight.

distemper = experiment: Investigation of clinical effectiveness in dogs with distemper; format: in vivo; settings: 2-4 ml of 0,5% solution intramuscularly twice daily for 3-10 days
Description: Investigation of clinical effectiveness in dogs with distemper
Dogs with an established diagnosis of distemper (duration of the disease from 10 to 30 days; in 3 animals--the intestinal form of the disease, in 2- pulmonary form, and in 3 animals--the neuro-paralytic stage) were inoculated intramuscularly with 2-4 ml (depending on the animal's weight) of 0,5% solution of the test compound I in distilled water twice daily for 3-10 days.

[2] = tested on: α, β, γ interferons in mouse serum
Description: Investigation of induction of α, β, γ interferons in mouse serum in vivo
The level of interferon synthesis in the blood serum was determined at various intervals (5, 24, 48, 72 hours). Interferon titrations were carried out in L-929 cell cultures. The test virus was mouse encephalomyocarditis virus.

[3] = tested on: Staphylococcus aureus Wood 46; experiment: Investigation of the staphylococcal activity; format: in vivo, CBA mice infected with Staphylococcus aureus Wood 46; settings: dose of 1 μg; statement in words
Description: Investigation of the staphylococcal activity
The preparation was inoculated subcutaneously to CBA mice in doses from 0,1 to 10 μg per mouse, after which the animals were inoculated with 1,25×10^6 microbial cells of Staphylococcus aureus Wood 46.

[4] = tested on: hemopoietic stem cells (HSC); experiment: Effect on proliferation of HSC (S-phase, oxyurea treatment); format: in vivo, mice; settings: statement in words
[5] = tested on: hemopoietic stem cells (HSC); experiment: Investigation of the effect on hemopoietic stem cell: release into the blood (exogenous colony formation); format: in vivo, mice; settings: statement in words
Description: Investigation of the effect on hemopoietic stem cell
Compound I was diluted in physiological saline solution to a concentration of […]. Mice of the experimental groups were inoculated with 0,2 ml of one of the obtained solutions (0,5 and 1 μg/mouse respectively) intraperitoneally. Control animals were given injections of physiological saline solutions. At 1, 2, 3, 4 and 7 days after administration of the test compound, the animals were given heparin (40 units/mouse), and then specimens of the peripheral blood, spleen and bone marrow from thighbones. The blood was diluted 1:1 with physiological saline solution. Bone marrow and spleen suspensions were prepared by the standard method. The content of hemopoietic stem cells (HSC) in the blood, bone marrow and spleens of the animals treated with the preparation were tested by the method of exogenous colony formation in the spleen of syngeneic lethally irradiated recipients; more specifically, diluted peripheral blood (0,1 ml), bone marrow cells (3-5 ×10^4 cells) or spleen cells (5×10^5 cells) were inoculated to lethally irradiated syngeneic recipients which were killed at 8-9 days; their spleens were removed, fixed in Bouin's solution, and the number of visible plaques or colonies developing from HSC was counted.

interferon [6] = settings: mice, oral administration; cited from earlier work
γ-interferon = settings: suspension of mononuclear cells in vitro; cited from earlier work

Structure (SMILES): CCC[O][Ge]1([OH])[O]C(=O)c2cccc(n2)C(=O)[O]1 [2,6-pyridinediyl-biscarbonylox-(hydroxypropoxygermanium)]
- immune interferon inducer properties (interferon [1]): possessing the properties of an immune interferon inducer
- immunomodulating activity (interferon [1]): narrow spectrum of the immunomodulating activity

Structure (SMILES): O=C1[O][Ge]2([O]C(=O)c3cccc1n3)[O]C(=O)c1cccc(n1)C(=O)[O]2 [Compound I, germanium bis(pyridine-2,6-dicarboxylate)]
- LD50 (acute toxicity in mice; mouse, in vivo, mice, acute toxicity): 900 mg/kg
- toxicity (acute toxicity in mice; statement in words): low toxicity
- clinical outcome (distemper): all the animals became clinically normal
- γ interferon in serum ([2]; at later intervals postinoculation): at later intervals γ interferon
- interferons α and β in serum ([2]; within the first 5 hours postinoculation): detectable
- resistance of mice to staphylococcus [3]: enhances the resistance of mice to staphylococcus
- solubility in chloroform (solubility; chloroform): insoluble
- solubility in diethylformamide (solubility; diethylformamide): moderately soluble
- solubility in dimethyl sulphoxide (solubility; dimethyl sulphoxide): moderately soluble
- solubility in ethanol (solubility; ethanol): insoluble
- solubility in ether (solubility; ether): insoluble
- solubility in hydrocarbons (solubility; hydrocarbons): insoluble
- solubility in water (solubility; water): moderately soluble
- capacity to stimulate HSC release into the S-phase [4]: No capacity to stimulate HSC release into the S-phase was demonstrated
- number of HSC in the blood [5]: increases the number of HSC in the blood

Structure (SMILES): O=C(O)C[CH2][Ge](=[O])[O][Ge](=[O])[CH2]CC(=O)O [carboxyethylgermanium-sesquioxide]
- effectiveness as an immune interferon inducer (interferon [1]): low effectiveness as an immune interferon inducer
- toxicity (interferon [1]): has toxicity
- interferon production in the blood (interferon [6]): capable, upon oral administration, of inducing interferon production in the blood of mice
- γ-interferon synthesis (γ-interferon): capable of inducing γ-interferon synthesis
